# Read-outs that look alike come from different tables or passages of the source. Ends that are not written are not given here.
# Assays:
# [1] = tested on: human ductus arteriosus (DA) rings; experiment: Human DA ring tension; conditions: for constriction of fresh human DA rings: hypoxia, 4-AP 1-10 mM, IBTx 200 nM
# Experimental: DAs excised from 26 neonates with hypoplastic left heart syndrome during the Norwood procedure (age 9±2 days, 12 female, arterial PO2˜40 mmHg) were usedDAs were transported in iced saline, maintained in hypoxia and used within 1 hour. Ring tension was recorded as previously described in Michelakis E, et al. (2000) Lancet 356:134-7.
# Optimal passive ring tension was determined to be 1 g, as defined by the maximal constriction to 80 mM KCl. Tension was recorded using a force transducer connected to a MacLab A-D convertor (AD Instruments, Toronto, Canada). Tension was recorded from rings bubbled with 95% N2 and 5% CO2 in Krebs' solution, to mimic in utero conditions (PO2 40 mmHg, pH 7.4, pCO2 40-50 mmHg). Normoxia was created by bubbling with 20%O2 and 5% CO2 (balance N2) resulting in PO2 150 mmHg, pH 7.4, and PCO2 40 mmHg. Optimal resting tension was previously found to be 1000 mg, as described in Michelakis E, et al. (2000) Lancet 356:134-7. To exclude the contribution of several endothelial-derived vasoactive substances, the Krebs' solution also contained meclofenamate 17 μM to inhibit PGHS and L-N^G-nitroarginine-methylester (L-NAME) 10^−5 M to inhibit NOS.
# DASMC mitochondria = experiment: Mitochondrial membrane potential in DASMCs (JC-1, TMRM); type: cell-based, human
# Experimental: Mitochondrial membrane potential (Δψm) was measured using two independent and well-validated probes JC-1 and TMRM (tetramethyl rhodamine methyl ester), as previously described in Michelakis E D, et al. (2002) Circ Res. 90:1307-15.
# First-passage cultured DASMC were loaded with either JC-1 (1 μM) or TMRM (20 nM) for 30 minutes (37° C.) at 37 C. Confocal images were obtained within 30 minutes using a Zeiss Axiovert 100M inverted microscope equipped with an Apochromat 40×1.2 water-corrected objective. Settings (amplifier gain, pin hole size and filter set) were kept constant between experiments.
# […]. JC-1 fluoresces in the red spectra in hyperpolarized mitochondria (high Δψm) and in the green spectra in depolarized mitochondria (low Δψm). KCl (40 mM) was used to clamp the plasmalemmal membrane potential in some experiments. […] TMRM binds the inner and outer aspects of the inner mitochondrial membrane and accumulates in the mitochondria at greater quantities than predicted by the Nernst equation. TMRM fluorescence red in proportion to ψm. A 488 nm Argon laser was used for excitation and the resultant red/green fluorescence was quantified in channels 1 and 2 using LP 560 nm and BP 505-530 nm filters, respectively. 8-bit images were collected with a laser loiter time of 4.48 μs/pixel. Pinholes yielded optical slices of 1 μm. Results are expressed as the ratio of red/green channel fluorescence.
# DASMC K+ current (IK) = experiment: Whole-cell patch clamp of human DASMCs; type: cell-based; conditions: for IK at potentials close to the resting EM (-30 mV) / whole cell K+ current (IK): fresh human DASMC
# Experimental: (§1) Current and voltage clamp technique, SMC isolation and pipette solutions were performed as previously described in Michelakis E D, et al. (2002) Circ Res. 90:1307-15. The response to O2, ETC inhibitors and the membrane permeable H2O2 analog, t-butyl hydrogen peroxide, were compared between DASMCs enzymatically dispersed from fresh DAs versus those maintained in tissue culture for 72 hours (either under normoxic or hypoxic conditions).
# Cells were voltage clamped at a holding potential of −70 mV and currents were evoked by 10 mV steps to +50 mV using test pulses of 200 ms duration. Data were recorded and analyzed using pCLAMP 6.02 software (Axon Instruments, Foster City, Calif.). Current density was calculated (pA/pF) and plotted against voltage.
# human DA rings = experiment: H2O2 production in DA rings (AmplexRed, lucigenin chemiluminescence)
# Experimental: DA rings were loaded with lucigenin 5 μM and placed in a 2 ml heated cuvette at 37° C. Counts were recorded using a Packard 1900CA Liquid Scintillation Analyzer.
# H2O2, was measured using a specific, fluorometric AmplexRed® assay, as previously described in Michelakis E D, et al. (2002 ) Circ Res. 90:1307-15. An independent, specific measure of the candidate redox mediator, H2O2, was made using the one-step, fluorometric Amplex Red (Molecular Probes, Eugene, Oreg.) assay. The assay detects H2O2 using 10-acetyl-3,7-dihydroxyphenoxazine (Amplex Red reagent) a stable probe that, in the presence of horseradish peroxidase (HRP), reacts with H2O2 with a 1:1 stoichiometry to produce the highly fluorescent substance, resorufin. The assay was calibrated (FIG. 15) and found to be linear over the range of 0.25 to 5.0 μM. Freshly harvested DA rings were placed in a normoxic or a hypoxic solution containing AmplexRed and, after 20 minutes, fluorescence was recorded (excitation 530 nm, emission 590 nm), see FIG. 15.
# DASMC EM = experiment: DASMC membrane potential EM (current clamp, DiBAC4(3)); type: cell-based, human
# Experimental: as §1
# DASMC EM was measured both using patch clamp technique in current clamp mode and noninvasively with DiBAC4(3) (20 μM, bis-barbituric acid oxonol), a potentiometric dye that increases green fluorescence upon depolarization. DiBAC4 loaded cells or intact DA rings were stimulated with multi-photon excitation at 740 nm and emission was measured in the green range, 505-530 nm. DASMCs were studied after culture in normoxic or hypoxic environment for 4-5 days. The acute change in EM that occurred in response to 4-AP (10 mM), KCL (80 mM) or a switch in PO2 from 40 to 120 mmHg was measured.
# PASMC K+ current (IK) = experiment: Whole-cell patch clamp of PASMCs; type: cell-based; conditions: normoxic-saline rat PASMCs
# Excerpt: Fresh PASMC's were isolated from fourth division PA's by enzymatic dispersion and studied using conventional whole-cell patch-clamp technique at room temperature, as previously described in Archer S L, et al. (1998) J. Clin. Invest. 101:2319-30, and Michelakis E D, et al. (2001) Am. J. Physiol. Lung Cell Mol. Physiol. 280:L1138-47. All cells were voltage-clamped at a holding potential of −70 mV. Currents were evoked in stepwise fashion from −70 mV to +70 mV with test pulses of 200 ms. Whole-cell currents were divided by the capacitance of the cell, yielding current density. The pipette solution (intracellular) contained (mmol/L): KCl 134, KH2PO4 1.2, MgCl2 1.0, HEPES 5, pH 7.30, Na2ATP 5 and EGTA 5.
molecule,measurement,setting,value
antimycin,phenylephrine constriction,[1]; DA rings,unaltered
same,relaxation of the O2-preconstricted DA,[1]; normoxic DA rings,relax
C=C(C)[C@H]1Cc2c(ccc3c2O[C@@H]2COc4cc(OC)c(OC)cc4[C@@H]2C3=O)O1 [rotenone],phenylephrine constriction,[1],unaltered
same,relaxation of chronically normoxic DA rings,[1],no longer causes relaxation
same,relaxation of the O2-preconstricted DA,[1],relax
same,ψm in DASMCs,DASMC mitochondria,depolarizes
same,IK acutely suppressed by O2,DASMC K+ current (IK),precisely restoring the current
same,IK of DASMC from chronically normoxic DAs,DASMC K+ current (IK),unresponsive
same,H2O2 production,human DA rings,decreases
"CC(C)(C)OO [t-butyl-H2O2, t-butyl hydrogen peroxide]",IK in freshly dispersed DASMCs,DASMC K+ current (IK); voltage clamp,inhibits
same,EM of fresh hypoxic DASMCs,DASMC EM; current clamp,depolarizes
same,depolarizing response in chronically normoxic DASMCs,DASMC EM; current clamp,lost
"iberiotoxin (QFTDVDCSVSKECWSVCKDLFGVDRGKCMGKKCRCYQ; ends and bridges not checked; cysteine pairing not given here; UniProt P24663 1-37, looked up) [IBTx]",constriction of fresh human DA rings,[1],does not
same,IK at potentials close to the resting EM (-30 mV),DASMC K+ current (IK),minimal inhibition
same,whole cell K+ current (IK),DASMC K+ current (IK),significantly inhibit
"Nc1ccncc1 [4-AP, 4-aminopyridine]",constriction of fresh human DA rings,[1],significantly constricts
same,IK in N-S PASMCs,PASMC K+ current (IK),reversible inhibition
same,IK at potentials close to the resting EM (-30 mV),DASMC K+ current (IK),significant decreases
same,whole cell K+ current (IK),DASMC K+ current (IK),significantly inhibit
same,IK of DASMC from chronically normoxic DAs,DASMC K+ current (IK); returned to hypoxic conditions,unresponsive
same,acute depolarization of ionically remodeled DASMCs,"DASMC EM; chronically normoxic, returned acutely to hypoxia, 4-AP 10 mM",loose their ability to depolarize
